Entries after “also recorded” stand apart in the source; their conditions may differ. Marks after values point to notes of the source that are not given here.
Columns and labels:
[1] = test system: PSMA+ tumors; test: Tumor dosimetry and uptake by SPECT imaging in patients; assay type: in vivo, human
Source text: In addition to assessing radiation exposure to dose limiting organs, it is also feasible to use SPECT/CT or SPECT/MRI imaging and dosimetry to estimate CTT1403 dose to the tumor, which could indicate efficacy.
CTT1057 PSMA+ PET is used to screen patients for PSMA avid tumors prior to enrollment into the clinical trial. SPECT/CT images are collected serially on days 1, 3, 5 and 8 following CTT1403 dose administration to assess dosimetry, or exposure of normal organs and the tumor to the radionuclide, 177-lutetium. […] FIGS. 2-7 show the PET images collected prior to and after CTT1403 and serial SPECT/CT images collected from patients enrolled in the clinical trial. Further, Table 4 compares the doses in kidney and tumor reported by Violet et al (Violet, J., et al., “Dosimetry of (177)Lu-PSMA-617 in Metastatic Castration-Resistant Prostate Cancer: Correlations Between Pretherapeutic Imaging and Whole-Body Tumor Dosimetry with Treatment Outcomes” J Nucl Med, 2019. 60(4): p. 517-523) compared to findings to date in patients administered CTT1403.

[2] = test system: prostate specific antigen (PSA); test: PSA levels in patients after CTT1403 administration; assay type: in vivo, human
Method: In order to investigate the pharmacokinetics of CTT1403, doses were administered by IV to fifteen subjects. The subjects each had histologically confirmed prostate adenocarcinoma that was metastatic and castration resistant (mCRPA). Subjects with de novo small cell carcinoma of the prostate were excluded. The subjects further had at least three metastatic foci avid for PSMA-specific PET agent CTT1057 or 68Ga-PSMA-11 uptake. PSMA avidity was defined as SUVmax>mediastinal blood pool. The subjects had received docetaxel, were ineligible for docetaxel, or had refused docetaxel. They all further had progression by the PCWG3 criteria during or after treatment with abiraterone, enzalutamide, and/or apalutamide, and had serum testosterone<50 ng/dL. Subjects without a history of bilateral orchiectomy were required to remain on a luteinizing hormone-releasing hormone (LHRH) analog during the course of the protocol therapy.
Reduction in prostate specific antigen (PSA) at least 12 weeks after therapeutic administration is generally thought to be predictive of therapeutic efficacy. PSA levels at screening, at CTT1403 administration and at specified time points after CTT1403 administration are shown for selected patients enrolled in the trial, including patients still actively under observation (Patients 13, 14, 15). Reduction in PSA compared to Cycle 1, Day 1 has been observed in 4 patients to date: Patient 002 (75% maximum reduction), Patient 4 (40% maximum reduction), Patient 13 (14% reduction to date) and Patient 15 (9% reduction to date).

[3] = CTT1403 (7.5 GBq +/− 10%), preliminary, 2 tumors per patient in patients 14 and 15
[4] = patient 1, dose 0.73 GBq (19.6 mCi)
[5] = patient 4, dose 3.0 GBq (81.1 mCi)
[6] = patient 6, dose 2.98 GBq (80.5 mCi)
[7] = patient 14, dose 7.98 GBq (215.7 mCi)
[8] = patient 15, dose 7.77 GBq (210 mCi)

O=C(O)CC[C@H](NP(=O)(O)OCCC[C@H](NC(=O)CC[C@H](NC(=O)CCCCCNC(=O)CCC(NC(=O)CCOCCOCCOCCOCCNC(=O)CCC(=O)N1Cc2ccccc2-c2c(nnn2CCCNC(=O)CN2CCN3CCN4CCN(CC2)CC(=O)[O][177Lu]([O]C(=O)C3)[O]C(=O)C4)-c2ccccc21)C(=O)NC(CCCCNC(=O)CCCc1ccc(I)cc1)C(=O)O)C(=O)O)C(=O)O)C(=O)O (some centres unmarked) [CTT1403]
CTT1403 within tumor by SPECT ([1]; 4.5 GBq, through 7 days post-administration (FIG. 9, patient 12)): uptake of CTT1403 in tumors; also recorded: still clearly present
uptake of CTT1403 in tumors by SPECT ([1]; 24 hours after administration of 7.5 GBq (FIG. 10, patient 17)): distinct uptake
Tumor Dose to date, Dose Gy/GBq [1, 3]: 1.948* Gy/GBq
Tumor Dose to date, Mean Dose (Gy) [1, 3]: 14.61* Gy
tumor dose ([1]; administered by 3.0 GBq): ~1 Gy
Tumor 1 (Gy) [1, 4]: 0.122 Gy
Tumor 2 (Gy) [1, 4]: 0.1164 Gy
Tumor 1 (Gy) ([1]; patient 2, dose 1.5 GBq (40.5 mCi)): 0.2461 Gy
Tumor 2 (Gy) ([1]; patient 3, dose 2.03 GBq (54.8 mCi)): 0.2553 Gy
Tumor 1 (Gy) [1, 5]: 1.282 Gy
Tumor 2 (Gy) [1, 5]: 0.3729 Gy
Tumor 3 (Gy) [1, 5]: 1.906 Gy
Tumor 1 (Gy) ([1]; patient 5, dose 2.95 GBq (79.8 mCi)): 1.639 Gy
Tumor 1 (Gy) [1, 6]: 1.104 Gy
Tumor 2 (Gy) [1, 6]: 0.329 Gy
Tumor 1 (Gy) [1, 7]: 13.6 Gy
Tumor 2 (Gy) [1, 7]: 12.7 Gy
Tumor 1 (Gy) [1, 8]: 22.4 Gy
Tumor 2 (Gy) [1, 8]: 9.74 Gy
tumor dose compared to 177Lu-PSMA-617 ([1]; patients at 7.5 GBq+/−10%, early reported): at least similar and possibly even greater
tumor Gy/GBq compared to 177Lu-PSMA-617 in patients with PSA<50% ([1]; vs patients with less than a 50% reduction in circulating PSA): significantly outperform
Reduction in PSA compared to Cycle 1, Day 1 ([2]; Patient 002, maximum reduction): 75%
Reduction in PSA compared to Cycle 1, Day 1 ([2]; Patient 4, maximum reduction): 40%
Reduction in PSA compared to Cycle 1, Day 1 ([2]; Patient 13, reduction to date): 14%
Reduction in PSA compared to Cycle 1, Day 1 ([2]; Patient 15, reduction to date): 9%
PSA Result ([2]; patient 2 (1.50 GBq), 4 Weeks Post Treatment): 405.6 µg/L
PSA Result ([2]; patient 2 (1.50 GBq), 8 Weeks Post Treatment): 167.013 µg/L
PSA Result ([2]; patient 2 (1.50 GBq), 12 Weeks Post Treatment): 45.716 µg/L
PSA Result ([2]; patient 2 (1.50 GBq), Cycle 1-Day 1): 162.353 µg/L
PSA Result ([2]; patient 2 (1.50 GBq), Cycle 1-Day 22): 185.132 µg/L
PSA Result ([2]; patient 2 (1.50 GBq), Cycle 2-Day 1): 194.320 µg/L
PSA Result ([2]; patient 2 (1.50 GBq), End of Treatment): 215.919 µg/L
PSA Result ([2]; patient 4 (3.00 GBq), 8 Weeks Post Treatment): 41.80 µg/L
PSA Result ([2]; patient 4 (3.00 GBq), Cycle 1-Day 1): 65.684 µg/L
PSA Result ([2]; patient 4 (3.00 GBq), Cycle 1-Day 22): 77.876 µg/L
PSA Result ([2]; patient 4 (3.00 GBq), End of Treatment): 115.658 µg/L
PSA Result ([2]; patient 4 (3.00 GBq), Screening (before dosing)): 70.228 µg/L
PSA Result ([2]; patient 13 (5.99 GBq), Cycle 1-Day 1): 146.133 µg/L
PSA Result ([2]; patient 13 (5.99 GBq), Cycle 1-Day 22): 148.217 µg/L
PSA Result ([2]; patient 13 (5.99 GBq), Cycle 2-Day 1): 135.620 µg/L
PSA Result ([2]; patient 13 (5.99 GBq), Cycle 2-Day 22): 126.392 µg/L

Source: US20230064292A1, “METHODS OF TREATING PSMA-POSITIVE CANCER USING RADIONUCLIDE THERAPY” (priority 2020, published 2023)
